Laboratory results taken from patent publication US8680139B2 (Progenra, priority 2009, dated 2014).

Assays:
LOX IMVI = experiment: NCI-60 Human Tumor Cell Line Growth Inhibition Screen; format: cell-based; details: Melanoma, 48 hours, SRB
Protocol: (§1) Various human tumor cell lines representing the NCI-60 cancer screening panel were grown in RPMI 1640 medium containing 5% fetal bovine serum and 2 mM L-glutamine. For a typical screening experiment, cells were inoculated into 96 well microtiter plates in 100 μL at plating densities ranging from 5,000 to 40,000 cells/well depending on the doubling time of individual cell lines. After cell inoculation, the microtiter plates were incubated at 37° C., 5% CO2, 95% air and 100% relative humidity for 24 hours prior to addition of the test compound. After 24 hours, two plates of each cell line were fixed in situ with TCA, to represent a measurement of the cell population for each cell line at the time of test compound addition (Tz). Experimental test compounds were solubilized in 100% (v/v) DMSO at 400-fold the desired final maximum test concentration and stored frozen prior to use. At the time of test compound addition, an aliquot of frozen concentrate was thawed and diluted to twice the desired final maximum test concentration with complete medium containing 50 μg/ml gentamicin. Additional four, 10-fold or ½ log serial dilutions were made to provide a total of five test compound concentrations plus control. Aliquots of 100 μl of these different test compound dilutions were added to the appropriate microtiter wells already containing 100 μl of medium, resulting in the required final test compound concentrations.
(§2) Following test compound addition, the plates were incubated for an additional 48 hours at 37° C., 5% CO2, 95% air, and 100% relative humidity. For adherent cells, the assay was terminated by the addition of cold TCA. Cells were fixed in situ by the gentle addition of 50 μl of cold 50% (w/v) TCA and incubated for 60 minutes at 4° C. The supernatant was discarded, and the plates were washed five times with tap water and air dried. Sulforhodamine B (SRB) solution (100 μl) at 0.4% (w/v) in 1% acetic acid was added to each well, and plates were incubated for 10 minutes at room temperature. After staining, unbound dye was removed by washing five times with 1% acetic acid and the plates were air dried. Bound stain was subsequently solubilized with 10 mM trizma base, and the absorbance was read on an automated plate reader at a wavelength of 515 nm. For suspension cells, the methodology was the same except that the assay was terminated by fixing settled cells at the bottom of the wells by gently adding 50 μl of 80% TCA. Using the seven absorbance measurements [time zero, (Tz), control growth, (C), and test growth in the presence of test compound at the five concentration levels (Ti)], the percentage growth was calculated at each of the test compound concentrations levels. Percentage growth inhibition was calculated as: [(Ti−Tz)/(C−Tz)]×100 for concentrations for which Ti≧Tz or [(Ti−Tz)/Tz]×100 for concentrations for which Ti<Tz. Growth inhibition of 50% (GI50) was calculated from [(Ti−Tz)/(C−Tz)]×100=50, which is the test compound concentration resulting in a 50% reduction in the net protein increase (as measured by SRB staining) in control cells during the test compound incubation.

HT29 = experiment: as above; format: cell-based; details: HT-29, HT29, Colon Cancer, 48 hours, SRB
Protocol: as §1, §2

HL-60(TB) = experiment: as above; format: cell-based; details: Leukemia, 48 hours, SRB
Protocol: as §1, §2

CAKI-1 = experiment: as above; format: cell-based; details: CAKI-1, Renal Cancer, 48 hours, SRB
Protocol: as §1, §2

A549/ATCC = experiment: as above; format: cell-based; details: Non-Small Cell Lung Cancer, 48 hours, SRB
Protocol: as §1, §2

MCF7 = experiment: as above; format: cell-based; details: MCF7, Breast Cancer, 48 hours, SRB
Protocol: as §1, §2

OVCAR-3 = experiment: as above; format: cell-based; details: OVCAR-3, Ovarian Cancer, 48 hours, SRB
Protocol: as §1, §2

PC-3 = experiment: as above; format: cell-based; details: PC-3, Prostate Cancer, 48 hours, SRB
Protocol: as §1, §2

U251 = experiment: as above; format: cell-based; details: U-251, U251, CNS Cancer, 48 hours, SRB
Protocol: as §1, §2

[1] = HCT-116 Cellular Cytotoxicity Assay; details: human, HCT-116 cells, pH 7.2
Protocol: (§3) The purpose of this assay is to determine if any of the synthesized compounds are cytotoxic against HCT-116 cells, as measured by resazurin metabolism. Resazurin is metabolized only by living cells from a non-fluorescent molecule into Resorufin, a highly red fluorescent dye. […] The cells were cultured in an incubator at 37° C. in 5% CO2 and 95% humidified air. […] The final concentration DMSO was 0.5% (v/v) in all samples. The plates were returned to the incubator for 72 hours. Following 72 hours of test compound exposure, 10 μL of 0.2 mg/mL Resazurin (Sigma) in phosphate buffered saline was added to each well and the plate was returned to the incubator for 3-6 hours. Since living cells metabolize Resazurin, the fluorescence of the reduction product of Resazurin was measured using a microplate fluorometer with λex=531 nm and λem=590 nm filters. Resazurin dye in medium without cells was used to determine the background, which was subtracted from the data for all experimental wells.

USP7 = biological target: T1, USP7 (Homo sapiens, UniProt Q93009); experiment: USP7, Ub-PLA2 assay; format: biochemical; details: for EC50: Ub-PLA2 / NBD C6-HPC fluorescence, 30 minute preincubation, read-out: EC50 for inhibition of USP7; for USP7 inhibition, result in words: USP7, Ub-PLA2 assay
T1 construct: full length human USP7 protein; made in house
T1 sequence (Q93009 whole entry): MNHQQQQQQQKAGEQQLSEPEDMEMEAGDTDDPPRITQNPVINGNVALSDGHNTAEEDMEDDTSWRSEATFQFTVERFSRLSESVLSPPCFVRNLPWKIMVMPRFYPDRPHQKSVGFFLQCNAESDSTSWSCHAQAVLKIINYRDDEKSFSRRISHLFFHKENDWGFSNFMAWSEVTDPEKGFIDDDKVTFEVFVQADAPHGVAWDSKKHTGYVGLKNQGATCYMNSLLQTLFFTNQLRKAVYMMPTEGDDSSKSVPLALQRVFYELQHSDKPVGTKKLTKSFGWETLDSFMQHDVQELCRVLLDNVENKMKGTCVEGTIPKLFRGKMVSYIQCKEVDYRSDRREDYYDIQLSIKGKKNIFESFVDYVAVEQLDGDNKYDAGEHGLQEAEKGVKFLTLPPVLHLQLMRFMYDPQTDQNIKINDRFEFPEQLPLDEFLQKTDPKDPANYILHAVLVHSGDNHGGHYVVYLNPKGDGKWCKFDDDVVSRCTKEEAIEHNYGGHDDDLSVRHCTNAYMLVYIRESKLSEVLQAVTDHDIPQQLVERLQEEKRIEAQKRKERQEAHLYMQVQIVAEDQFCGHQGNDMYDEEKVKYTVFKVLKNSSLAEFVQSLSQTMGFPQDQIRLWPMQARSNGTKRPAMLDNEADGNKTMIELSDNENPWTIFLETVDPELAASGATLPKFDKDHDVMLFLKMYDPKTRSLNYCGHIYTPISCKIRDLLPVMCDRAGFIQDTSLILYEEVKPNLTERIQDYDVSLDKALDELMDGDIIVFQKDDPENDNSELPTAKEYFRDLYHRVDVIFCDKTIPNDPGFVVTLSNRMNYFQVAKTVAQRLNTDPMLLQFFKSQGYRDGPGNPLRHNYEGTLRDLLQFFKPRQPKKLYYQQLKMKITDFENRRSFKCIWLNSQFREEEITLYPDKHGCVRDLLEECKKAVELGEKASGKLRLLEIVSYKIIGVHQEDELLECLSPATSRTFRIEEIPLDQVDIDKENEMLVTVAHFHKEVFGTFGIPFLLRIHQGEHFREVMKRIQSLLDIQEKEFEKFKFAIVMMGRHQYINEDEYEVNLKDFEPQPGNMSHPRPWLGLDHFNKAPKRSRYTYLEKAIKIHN
How it was run: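 Compounds tested against USP7 with DMSO vehicle control and NEM-treated wells as background. Fluorescence (RFU) read-out; % inhibition normalized per plate to mean DMSO and NEM controls.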

HCT-116 cells [2] = test system: HCT-116 cells
Protocol: as §3

HCT-116 cells [3] = experiment: HCT-116 Combination Cytotoxicity Assay; format: cell-based, human; details: constant ratio, 72 hours
[4] = test system: human multiple myeloma tumor cells; experiment: In vivo Efficacy of P5091; details: SCID mice, 10 mg/kg intravenously twice a week for three weeks
Protocol: Severe combined immunodeficient mice inoculated subcutaneously with human multiple myeloma tumor cells were treated intravenously twice a week for three weeks with 10 mg/kg P5091. […] See D. Chauhan et al., Abstract No. 610 (Deubiquitylating Enzyme USP-7, a Novel Therapeutic Target in Multiple Myeloma), 51st ASH Annual Meeting and Exposition, New Orelans, La., December 2009.

CC(=O)c1cc([N+](=O)[O-])c(Sc2c(Cl)cncc2Cl)s1 [Example 17, 1-[5-[(3,5-dichloro-4-pyridyl)sulfanyl]-4-nitro-2-thienyl]ethanone]
GI50 (LOX IMVI): 1510 nM
GI50 (HT29): 1860 nM
GI50 (HL-60(TB)): 1910 nM
GI50 (CAKI-1): 1860 nM
GI50 (A549/ATCC): 3090 nM
GI50 (MCF7): 1910 nM
GI50 (OVCAR-3): 1410 nM
GI50 (PC-3): 2750 nM
GI50 (U251): 1950 nM
EC50 at 72 h [1]: 8660 nM
EC50 (USP7): 1000 to 10000 nM

CC(=O)c1cc([N+](=O)[O-])c(Sc2ccc(Cl)cc2Cl)s1 [Example 2, 1-[5-(2,4-Dichlorophenylsulfanyl)-4-nitro-2-thienyl]ethanone]
EC50 at 72 h [1]: 16100 nM
EC50 (USP7): 1000 to 10000 nM

CC(=O)c1cc([N+](=O)[O-])c(Sc2ccc(Cl)c(Cl)c2)s1 [Example 8, 1-[5-(3,4-Dichlorophenylsulfanyl)-4-nitro-2-thienyl]ethanone]
EC50 at 72 h [1]: 14800 nM
EC50 (USP7): 1000 to 10000 nM

N-(5-(tert-butyl)isoxazol-3-yl)-5-((3,5-dichloropyridin-4-yl)thio)-4-nitrothiophene-2-carboxamide [Example 201]
EC50 (HCT-116 cells [2]): 12900 nM

CN(C)CCC(=O)c1cc([N+](=O)[O-])c(Sc2ccc(Cl)cc2Cl)s1 [Example 24, 1-[5-(2,4-dichlorophenyl)sulfanyl-4-nitro-2-thienyl]-3-dimethylamino-propan-1-one]
EC50 at 72 h [1]: 27300 nM
EC50 (USP7): 1000 to 10000 nM

CC(=O)c1cc([N+](=O)[O-])c(Sc2cccc(Cl)c2Cl)s1 [Example P5091, 1-[5-(2,3-dichlorophenyl)sulfanyl-4-nitro-2-thienyl]ethanone]
CI (mean ± SD) ED75 (HCT-116 cells [3]; combination with Chlormethine): 0.67 ± 0.07
CI (mean ± SD) ED90 (HCT-116 cells [3]; combination with Chlormethine): 0.77 ± 0.05
CI (mean ± SD) ED75 (HCT-116 cells [3]; combination with Doxorubicin): 0.73 ± 0.08
CI (mean ± SD) ED90 (HCT-116 cells [3]; combination with Doxorubicin): 0.81 ± 0.02
CI (mean ± SD) ED75 (HCT-116 cells [3]; combination with Etoposide): 0.54 ± 0.04
CI (mean ± SD) ED90 (HCT-116 cells [3]; combination with Etoposide): 0.63 ± 0.01
GI50 (LOX IMVI): 1840 nM
GI50 (HT29): 2070 nM
GI50 (HL-60(TB)): 1820 nM
GI50 (CAKI-1): 2170 nM
GI50 (A549/ATCC): 16300 nM
GI50 (MCF7): 1940 nM
GI50 (OVCAR-3): 1650 nM
GI50 (PC-3): 1780 nM
GI50 (U251): 2330 nM
EC50 at 72 h [1]: 9210 nM
human plasmacytoma growth [4]: significantly inhibited human plasmacytoma growth
survival [4]: significantly enhanced survival

Cc1cc(NC(=O)c2cc([N+](=O)[O-])c(Sc3c(Cl)cncc3Cl)s2)n(CCN(C)C)n1 [Example 182, 5-((3,5-dichloropyridin-4-yl)thio)-N-(1-(2-(dimethylamino)ethyl)-3-methyl-1H-pyrazol-5-yl)-4-nitrothiophene-2-carboxamide]
EC50 at 72 h [1]: 14300 nM
EC50 (USP7): ≤ 1000 nM

CS(=O)(=O)c1cc([N+](=O)[O-])c(Sc2ccc(Cl)cc2Cl)s1 [Example 23, 2-(2,4-dichlorophenyl)sulfanyl-5-methylsulfonyl-3-nitro-thiophene]
GI50 (LOX IMVI): 1740 nM
GI50 (HT29): 1780 nM
GI50 (HL-60(TB)): 2190 nM
GI50 (CAKI-1): 2240 nM
GI50 (A549/ATCC): 12600 nM
GI50 (MCF7): 1700 nM
GI50 (OVCAR-3): 1620 nM
GI50 (PC-3): 3980 nM
GI50 (U251): 6310 nM
EC50 (USP7): 1000 to 10000 nM

Cc1cnc(CNC(=O)c2cc([N+](=O)[O-])c(Sc3c(Cl)cncc3Cl)s2)cn1 [Example 103, 5-((3,5-dichloropyridin-4-yl)thio)-N-((5-methylpyrazin-2-yl)methyl)-4-nitrothiophene-2-carboxamide]
EC50 at 72 h [1]: 7180 nM
EC50 (USP7): ≤ 1000 nM

CN(C)CCC(O)c1cc([N+](=O)[O-])c(Sc2ccc(Cl)cc2Cl)s1 (centres unmarked) [Example 25, 1-[5-(2,4-dichlorophenyl)sulfanyl-4-nitro-2-thienyl]-3-dimethylamino-propan-1-ol]
EC50 at 72 h [1]: 15200 nM
EC50 (USP7): 1000 to 10000 nM

CN(C)CCCOc1ccc(NC(=O)c2cc([N+](=O)[O-])c(Sc3c(Cl)cncc3Cl)s2)cc1 [Example 193, 5-[(3,5-dichloro-4-pyridyl)sulfanyl]-N-[4-(3-dimethylaminopropoxy)phenyl]-4-nitro-thiophene-2-carboxamide]
EC50 at 72 h [1]: 3370 nM
USP7 inhibition, result in words (USP7): Particularly good results
EC50 (USP7): ≤ 1000 nM

COc1ccc(NC(=O)c2cc([N+](=O)[O-])c(Sc3c(Cl)cncc3Cl)s2)cc1 [Example 155, 5-((3,5-dichloropyridin-4-yl)thio)-N-(4-methoxyphenyl)-4-nitrothiophene-2-carboxamide]
EC50 at 72 h [1]: 5490 nM
USP7 inhibition, result in words (USP7): Particularly good results
EC50 (USP7): ≤ 1000 nM

CN1CCC(NC(=O)c2cc([N+](=O)[O-])c(Sc3c(Cl)cncc3Cl)s2)CC1 [Example 168, 5-((3,5-dichloropyridin-4-yl)thio)-N-(1-methylpiperidin-4-yl)-4-nitrothiophene-2-carboxamide]
CI (mean ± SD) ED75 (HCT-116 cells [3]; combination with Chlormethine): 0.70 ± 0.10
CI (mean ± SD) ED90 (HCT-116 cells [3]; combination with Chlormethine): 0.78 ± 0.13
CI (mean ± SD) ED75 (HCT-116 cells [3]; combination with Doxorubicin): 0.73 ± 0.09
CI (mean ± SD) ED90 (HCT-116 cells [3]; combination with Doxorubicin): 0.81 ± 0.11
CI (mean ± SD) ED75 (HCT-116 cells [3]; combination with Etoposide): 0.54 ± 0.10
CI (mean ± SD) ED90 (HCT-116 cells [3]; combination with Etoposide): 0.59 ± 0.14
EC50 at 72 h [1]: 6520 nM
EC50 (USP7): ≤ 1000 nM

CC(=O)c1cc([N+](=O)[O-])c(Sc2ccc(F)cc2F)s1 [Example 3, 1-[5-(2,4-Difluorophenylsulfanyl)-4-nitro-2-thienyl]ethanone]
GI50 (LOX IMVI): 1510 nM
GI50 (HT29): 3800 nM
GI50 (HL-60(TB)): 2750 nM
GI50 (CAKI-1): 1820 nM
GI50 (A549/ATCC): 15500 nM
GI50 (MCF7): 2570 nM
GI50 (OVCAR-3): 2040 nM
GI50 (PC-3): 12000 nM
GI50 (U251): 4790 nM

CC(=O)c1cc([N+](=O)[O-])c(Oc2ccc(Cl)cc2Cl)s1 [Example 271, 1-(5-(2,4-dichlorophenoxy)-4-nitrothiophen-2-yl)ethanone]
EC50 at 72 h [1]: 8540 nM
EC50 (USP7): 1000 to 10000 nM

CN(C)CCNc1ccc(NC(=O)c2cc([N+](=O)[O-])c(Sc3c(Cl)cncc3Cl)s2)cn1 [Example 238, 5-((3,5-dichloropyridin-4-yl)thio)-N-(6-((2-(dimethylamino)ethyl)amino)pyridin-3-yl)-4-nitrothiophene-2-carboxamide]
EC50 at 72 h [1]: 3960 nM
EC50 (USP7): ≤ 1000 nM

CS(=O)(=O)c1cc([N+](=O)[O-])c(Sc2c(Cl)cncc2Cl)s1 [Example 22, 3,5-dichloro-4-[(5-methylsulfonyl-3-nitro-2-thienyl)sulfanyl]pyridine]
GI50 (LOX IMVI): 10000 nM
GI50 (HT29): 2040 nM
GI50 (HL-60(TB)): 1410 nM
GI50 (CAKI-1): 1820 nM
GI50 (A549/ATCC): 13800 nM
GI50 (MCF7): 2040 nM
GI50 (OVCAR-3): 1820 nM
GI50 (PC-3): 3720 nM
GI50 (U251): 12900 nM
EC50 (USP7): 1000 to 10000 nM
